Experimental data as given in ChEMBL document CHEMBL1150816, “Bioactive constituents of the roots of Licania intrapetiolaris” (J Nat Prod, 2001).
In brackets after ≈: the same amount, converted by molar mass. Activity calls are given as the source filed them. The rule behind the calls is not given here.

Experiments:
Aspergillus niger = assay: Antifungal activity against Aspergillus niger after 24 hrs; type: functional
KB = assay: Cytotoxicity against human KB cells after 72 hrs by spectrophotometric method; type: functional, cell-based

SMILES	inhibition zone (IZ) (Aspergillus niger)	EC50 (KB) [µg/mL]
C[C@@H]1[C@H](O)[C@@H](C)/C=C/C=C/C=C/C=C/C=C/C=C/C=C/[C@H](O[C@@H]2O[C@H](C)[C@@H](O)[C@H](N)[C@@H]2O)C[C@@H]2O[C@](O)(C[C@@H](O)C[C@@H](O)[C@H](O)CC[C@@H](O)C[C@@H](O)CC(=O)O[C@H]1C)C[C@H](O)[C@H]2C(=O)O [AMPHOTERICIN B]	18 mm	–
CC(=O)OC(C)(C)/C=C/C(=O)[C@](C)(O)[C@H]1[C@H](O)C[C@@]2(C)[C@@H]3CC=C4[C@H](C[C@H](O)C(=O)C4(C)C)[C@]3(C)C(=O)C[C@]12C [CUCURBITACIN B]	–	0.008 (≈ 0.0143 µM)
C=CC(=C)CC[C@]1(C)[C@H](C)C[C@H](O)[C@@]23C(=C[C@@H](OC(=O)c4ccc(O)cc4)C[C@@H]12)[C@@H](OC)O[C@H]3OC(C)=O [INTRAPETACIN A]	inactive	2 (≈ 3.8 µM)
C=CC(=C)CC[C@]1(C)[C@H](C)C[C@H](O)[C@@]23C(=C[C@@H](OC(=O)c4ccc(O)cc4)C[C@@H]12)[C@@H](OC(C)=O)O[C@H]3OC(C)=O [INTRAPETACIN B]	21 mm	0.8 (≈ 1.44 µM)
